# According to US20220233534A1, “CERDULATINIB-CONTAINING TOPICAL SKIN PHARMACEUTICAL COMPOSITIONS AND USES THEREOF” (DERMAVANT SCIENCES GMBH, priority 2019, published 2022):
# Columns and labels:
# [1] = system: DNCB-induced atopic dermatitis NC/Nga mouse; assay: DNCB-induced atopic dermatitis in the NC/Nga mouse model; type: in vivo
# Procedure: Atopic dermatitis was induced by repeated application of DNCB (1-chloro-2,4-dinitrobenzene) to the dorsal skin of the ears/back. […] Lesions were evaluated on days 2, 8, 11, and 14.
# Macroscopic lesion severity scores are depicted in FIG. 7. Macroscopic skin lesion severity was measured on the indicated Study Days by assessing (0-3 scale) the presence of erythema, edema, excoriation/erosion, and dryness scaling on the ears, neck, and dorsal skin of animals.
# Serum IgE levels are depicted in FIG. 8. Serum samples obtained on Study Day 15 were utilized for IgE quantitation. Select cytokine data from the study are depicted in FIG. 9. Skin samples harvested on Day 15 were analyzed by LUMINEX for inflammatory cytokine levels for IL-4, IL-5, IL-13, and IL-31.
# vitiligo mouse model = assay: Study DMVT-502-9025 mouse model of vitiligo; type: in vivo
# Procedure: The model mimics human vitiligo by inducing epidermal depigmentation with autoreactive CD8+ T-cell accumulation. A schematic of the model is depicted in FIG. 15.
# Ten mice were used in the study: three REX3 reporter mice for cytokines CXCL9 and CXCL10 and seven SCF (stem cell factor) mice. The vitiligo study timeline is depicted in FIG. 16. The following assessments were performed during the study:
# Blinded scoring of ears, tail, nose, and ventral feet (0-5 scale)
# Epidermal, dermal, spleen, and lymph node PMEL (premelanosome protein) cell count
# Epidermal/dermal APC (antigen-presenting cell) count
# Keratinocyte Cytokine Expression
# [2] = 60 mg/kg once daily oral, 5 weeks
# [3] = 30 and 60 mg/kg once daily oral, 5 weeks
compound,measurement,setting,value
"CCS(=O)(=O)N1CCN(c2ccc(Nc3ncc(C(N)=O)c(NC4CC4)n3)cc2)CC1 [DMVT-502, Cerdulatinib]",serum IgE levels,"[1]; topical therapy, Study Day 15",trends towards reduction
same,"pro-inflammatory cytokine levels in skin (IL-4, IL-5, IL-13, IL-31)","[1]; topical treatment, Day 15, LUMINEX",limited suppression
same,APCs in the dermal skin compartment and Langerhans cells in the epidermal skin compartment compared with vehicle,vitiligo mouse model; [2],significantly reduced
same,"CD3+, CD8− T-cell counts in the spleen",vitiligo mouse model; [2],significantly reduced
same,PMEL T-cell counts in dermis and blood,vitiligo mouse model; [2],significantly reduced
same,host T-cell counts in blood,vitiligo mouse model; [2],significantly decreased
same,APC counts in lymph nodes and the spleen compared with vehicle,vitiligo mouse model; [3],significantly reduced
same,PMEL T-cell counts in the epidermis and dermis compared with vehicle,vitiligo mouse model; [3],significantly reduced
same,host-derived total T-cell counts in the spleen,vitiligo mouse model; [3],significantly reduced
same,vitiligo scores compared with vehicle controls,vitiligo mouse model; [3],significantly decreased
same,lymph node or spleen PMEL T cells,"vitiligo mouse model; 30 or 60 mg/kg once daily oral, 5 weeks",no significant differences
same,"CXCL9, CXCL10, and dual expression in keratinocytes compared with vehicle",vitiligo mouse model; SCF/REX3 mice,trends towards reduced
same,CXCL9 and CXCL10 expression in lymph node APCs,"vitiligo mouse model; once daily oral, 5 weeks",Reduced
same,total keratinocyte counts between treatment groups,"vitiligo mouse model; once daily oral, 5 weeks",No decrease
